In brackets after ≈: the same amount, converted by molar mass. Where two headings read alike, the source gives them in different places.
Experiments:
[1] = system: S. aureus ATCC 29213; experiment: MIC assay; assay type: cell-based, Staphylococcus aureus
Protocol: 1. Staphylococcus aureus—the principal staphylococcal test micro-organism used in these studies was Staphylococcus aureus ATCC 29213. This strain is the one recommended for QC/QA purposes in Minimum Inhibitory Concentration (MIC) assays by the US Clinical and Laboratory Standards Institute (formerly the NCCLS), an FDA-recognised body.
(§1) The staphylococci and enterococci were cultured and maintained on Mueller-Hinton Medium (agar and broth) at pH 7.2; they were incubated aerobically at 37° C. for 24 hours.
(§2) This is a standard international method for quantitatively assessing the antimicrobial activity of a compound in a liquid medium. The method used a 96-well microtitre plate, capable of holding about 200 μl of liquid per well. […] The culture media were as described above for the relevant test organisms.
(§3) The wells were inoculated with a liquid suspension of freshly grown micro-organism and incubated under the conditions described above. After incubation, the microtitre plate was examined visually (with the aid of a light box) for cloudiness in each well, which would indicate microbial growth. The MIC value was recorded as the lowest concentration of test compound required to inhibit microbial growth, i.e., the lowest concentration for which the liquid in the well remained clear.
(§4) The assays were conducted in duplicate and included both negative (culture medium only) and positive (culture medium, diluting solvent and inoculum) controls.
(§5) The following experiments all used S. aureus ATCC 29213 as the test organism. MIC, MBC and DDA assays, as described above, were carried out using a range of different benzoquinones and hydroquinones. Supplemented DDA assays, in the presence of salt, lipid and blood, were also conducted.

[2] = system: S. aureus ATCC 29213; experiment: MBC assay; assay type: cell-based, Staphylococcus aureus
Protocol: as §1
(§6) This assay, normally carried out after an MIC assay, determines the minimum concentration of a compound that is lethal to the micro-organism being tested.
(§7) These samples were then individually sub-cultured on non-selective agar medium, under the incubation conditions described above. Following incubation they were examined visually for bacterial growth.
as §5

[3] = system: S. aureus ATCC 29213; experiment: Disc diffusion assay (DDA); assay type: cell-based, Staphylococcus aureus; details: for zone of inhibition at 200 µg/disc: Staphylococcus aureus
Protocol: as §1
(§8) A sterile paper disc was impregnated with a sample of the test compound and a minimum of 30 minutes allowed for the solvents to evaporate as far as possible. The disc was then placed on an agar plate onto which the test micro-organism had been inoculated. The plate was then incubated under the conditions described above, following which it was examined visually for signs of bacterial growth. […] The diameter of this zone of “inhibition” was measured using a ProtoCOL™ automated zone sizer (Synbiosis, Cambridge, UK).
(§9) The area of the zone of inhibition was calculated from the measured zone diameter (D) using the formula π(D/2)^2.
(§10) For most DDA assays, 200 μg of each compound was loaded onto each disc.

[4] = system: S. aureus ATCC 29213; experiment: Supplemented disc diffusion assay; assay type: cell-based, Staphylococcus aureus; details: for zone of inhibition at 200 µg/disc: Staphylococcus aureus, ATCC29213, 24 h
Protocol: as §1, §8
(§11) Performance under these conditions can provide a more reliable indication of activity on topical application. For assays conducted using S. aureus strains, the supplements were defibrinated horse blood (5% v/v), lipid (Tween™ 80 at 1% v/v) and sodium chloride (100 mM). For those using Propionibacterium spp. strains, the supplements were lipid (Tween™ 80 at 1% v/v) and sodium chloride (100 mM).
as §5, §10

[5] = system: P. acnes NCTC 737; experiment: MIC assay; assay type: cell-based, Propionibacterium acnes
Protocol: 2. Propionibacterium spp.—the principal propionibacterial strain used in these studies was Propionibacterium acnes NCTC 737.
(§12) The Propionibacterium spp organisms were cultured and maintained on Wilkins-Chalgren Anaerobe Medium (agar and broth) at pH 6.0; cultures were incubated anaerobically at 37° C. for 72 hours.
as §2, §3, §4
(§13) MIC, MBC and DDA assays, as described above, were carried out using a range of different benzoquinones and hydroquinones. Supplemented DDA assays, in the presence of salt and lipid, were also conducted.

[6] = system: P. acnes NCTC 737; experiment: MBC assay; assay type: cell-based, Propionibacterium acnes
Protocol: as §12, §6, §7, §13

[7] = system: P. acnes NCTC 737; experiment: Disc diffusion assay (DDA); assay type: cell-based, Propionibacterium acnes; details: for zone of inhibition at 200 µg/disc: Cutibacterium acnes
Protocol: as §12, §8, §9, §10

[8] = system: P. acnes NCTC 737; experiment: Supplemented disc diffusion assay; assay type: cell-based, Propionibacterium acnes; details: for zone of inhibition at 200 µg/disc: Cutibacterium acnes, NCTC737, 72 h
Protocol: as §12, §8, §11, §13, §10

[9] = S. aureus ATCC 29213, Mueller-Hinton broth pH 7.2, aerobic, 37° C., 24 hours
[10] = S. aureus ATCC 29213, unsupplemented agar, 200 μg per disc (thymoquinone 50 μg, 2,6-dimethoxy-p-benzoquinone 100 μg)
[11] = S. aureus ATCC 29213, Tween 80 at 1% v/v, 200 μg per disc (thymoquinone 50 μg, 2,6-dimethoxy-p-benzoquinone 100 μg)
[12] = S. aureus ATCC 29213, defibrinated horse blood 5% v/v, 200 μg per disc (thymoquinone 50 μg, 2,6-dimethoxy-p-benzoquinone 100 μg)
[13] = S. aureus ATCC 29213, sodium chloride 100 mM, 200 μg per disc (thymoquinone 50 μg, 2,6-dimethoxy-p-benzoquinone 100 μg)
[14] = P. acnes NCTC 737, Wilkins-Chalgren broth pH 6.0, anaerobic, 37° C., 72 hours
[15] = P. acnes NCTC 737, unsupplemented agar, 200 μg per disc (2,6-dimethoxy-p-benzoquinone 100 μg)
[16] = P. acnes NCTC 737, Tween 80 at 1% v/v, 200 μg per disc (2,6-dimethoxy-p-benzoquinone 100 μg)
[17] = P. acnes NCTC 737, sodium chloride 100 mM, 200 μg per disc (2,6-dimethoxy-p-benzoquinone 100 μg)
[18] = Staphylococcus aureus, ATCC29213, S. aureus ATCC 29213, Mueller-Hinton broth pH 7.2, aerobic, 37° C., 24 hours, read-out: MIC
[19] = Staphylococcus aureus, ATCC29213, read-out: MBC
[20] = ATCC29213, S. aureus ATCC 29213, unsupplemented agar, 200 μg per disc (thymoquinone 50 μg, 2,6-dimethoxy-p-benzoquinone 100 μg), read-out: DDA (diameter of zone of inhibition)
[21] = S. aureus ATCC 29213, Tween 80 at 1% v/v, 200 μg per disc (thymoquinone 50 μg, 2,6-dimethoxy-p-benzoquinone 100 μg), read-out: DDA + lipid
[22] = S. aureus ATCC 29213, defibrinated horse blood 5% v/v, 200 μg per disc (thymoquinone 50 μg, 2,6-dimethoxy-p-benzoquinone 100 μg), read-out: DDA + blood
[23] = S. aureus ATCC 29213, sodium chloride 100 mM, 200 μg per disc (thymoquinone 50 μg, 2,6-dimethoxy-p-benzoquinone 100 μg), read-out: DDA + salt
[24] = Cutibacterium acnes, NCTC737, P. acnes NCTC 737, Wilkins-Chalgren broth pH 6.0, anaerobic, 37° C., 72 hours, read-out: MIC
[25] = Cutibacterium acnes, NCTC737, P. acnes NCTC 737, read-out: MBC
[26] = NCTC737, P. acnes NCTC 737, unsupplemented agar, 200 μg per disc (2,6-dimethoxy-p-benzoquinone 100 μg), read-out: DDA (diameter of zone of inhibition)
[27] = P. acnes NCTC 737, Tween 80 at 1% v/v, 200 μg per disc (2,6-dimethoxy-p-benzoquinone 100 μg), read-out: DDA + lipid
[28] = P. acnes NCTC 737, sodium chloride 100 mM, 200 μg per disc (2,6-dimethoxy-p-benzoquinone 100 μg), read-out: DDA + salt

| MIC [1, 9] | MIC/MBC ratio [2] | MIC [5, 14] | MIC/MBC ratio ([6]; P. acnes NCTC 737) | Compound | MBC [2] | DDA (diameter of zone of inhibition) [3, 10] | DDA + lipid [4, 11] | DDA + blood [4, 12] | DDA + salt [4, 13] | MBC ([6]; P. acnes NCTC 737) | DDA (diameter of zone of inhibition) [7, 15] | DDA + lipid [8, 16] | DDA + salt [8, 17] | also measured |
| --- | --- | --- | --- | --- | --- | --- | --- | --- | --- | --- | --- | --- | --- | --- |
|  | 1 |  | 1 | CC(C)(C)C1=CC(=O)C(=O)C(C(C)(C)C)=C1 [3,5-di-t-butyl-o-benzoquinone] |  |  |  |  |  |  |  |  |  | MIC [1, 18]: 7.8 µg/mL (≈ 35.4 µM); MBC [2, 19]: 7.8 µg/mL (≈ 35.4 µM); zone of inhibition at 200 µg/disc [3, 20]: 23.4 mm; zone of inhibition at 200 µg/disc [4, 21]: 17.4 mm; zone of inhibition at 200 µg/disc [4, 22]: 15.9 mm; zone of inhibition at 200 µg/disc [4, 23]: 23 mm; MIC [5, 24]: 15.6 µg/mL (≈ 70.8 µM); MBC [6, 25]: 15.6 µg/mL (≈ 70.8 µM); zone of inhibition at 200 µg/disc [7, 26]: 31.8 mm; zone of inhibition at 200 µg/disc [8, 27]: 26.4 mm; zone of inhibition at 200 µg/disc [8, 28]: 40.5 mm |
| 125 µg/mL (≈ 687 µM) | 1 | 62.5 µg/mL (≈ 343 µM) | 0.5 | Oc1c(F)c(F)c(O)c(F)c1F [tetrafluoro-p-hydroquinone] | 125 µg/mL (≈ 687 µM) | 10.83 mm | 9.38 mm | 0.0 mm | 11.25 mm | 125 µg/mL (≈ 687 µM) | 33.86 mm | 0.0 mm | 36.35 mm |  |
| 3.9 µg/mL (≈ 28.2 µM) | 0.5 | 7.8 µg/mL (≈ 56.5 µM) | 0.25 | Cc1cc(O)cc(C)c1O [2,6-dimethyl-p-hydroquinone] | 7.8 µg/mL (≈ 56.5 µM) | 40.88 mm | 47.94 mm | 25.53 mm | 43.89 mm | 31.25 µg/mL (≈ 226 µM) | 0.0 mm | 0.0 mm | 0.0 mm |  |
| 3.9 µg/mL (≈ 16.5 µM) | 0.5 | 15.6 µg/mL (≈ 66 µM) | 0.5 | CCCCCCOc1cc(C)c(O)c(C)c1C [1-o-hexyl-2,3,5-trimethyl-p-hydroquinone] | 7.8 µg/mL (≈ 33 µM) | 8.61 mm | 0.0 mm | 0.0 mm | 8.72 mm | 31.25 µg/mL (≈ 132 µM) | 16.64 mm | 0.0 mm | 16.43 mm |  |
|  | 1 |  | 0.5 | CC(C)(C)c1cc(O)c(O)c(C(C)(C)C)c1 [3,5-di-t-butylcatechol] |  |  |  |  |  |  |  |  |  | MIC [1, 18]: 7.8 µg/mL (≈ 35.1 µM); MBC [2, 19]: 7.8 µg/mL (≈ 35.1 µM); zone of inhibition at 200 µg/disc [3, 20]: 18.8 mm; zone of inhibition at 200 µg/disc [4, 21]: 10.9 mm; zone of inhibition at 200 µg/disc [4, 22]: 11.9 mm; zone of inhibition at 200 µg/disc [4, 23]: 19.7 mm; MIC [5, 24]: 7.8 µg/mL (≈ 35.1 µM); MBC [6, 25]: 15.6 µg/mL (≈ 70.2 µM); zone of inhibition at 200 µg/disc [7, 26]: 35.9 mm; zone of inhibition at 200 µg/disc [8, 27]: 0 mm; zone of inhibition at 200 µg/disc [8, 28]: 37.3 mm |
| 7.8 µg/mL (≈ 56.5 µM) | 0.5 | 7.8 µg/mL (≈ 56.5 µM) | 0.25 | CCc1cc(O)ccc1O [2-ethyl-p-hydroquinone] |  | 21.06 mm |  |  |  |  | 9.90 mm | 0.0 mm |  |  |

| Compound | MIC [1, 9] | MIC/MBC ratio [2] | MIC [5, 14] | MIC/MBC ratio ([6]; P. acnes NCTC 737) | MBC [2] | DDA (diameter of zone of inhibition) [3, 10] | DDA + lipid [4, 11] | DDA + blood [4, 12] | DDA + salt [4, 13] | MBC ([6]; P. acnes NCTC 737) | DDA (diameter of zone of inhibition) [7, 15] | DDA + lipid [8, 16] | DDA + salt [8, 17] | also measured |
| --- | --- | --- | --- | --- | --- | --- | --- | --- | --- | --- | --- | --- | --- | --- |
| Oc1c(Cl)c(Cl)c(O)c(Cl)c1Cl [tetrachloro-p-hydroquinone] | 125 µg/mL (≈ 504 µM) | 1 | 31.25 µg/mL (≈ 126 µM) | 1 | 125 µg/mL (≈ 504 µM) | 16.25 mm | 14.69 mm | 9.38 mm | 16.88 mm | 31.25 µg/mL (≈ 126 µM) | 25.37 mm | 0.0 mm | 28.27 mm |  |
| COC1=CC(=O)C=C(OC)C1=O [2,6-dimethoxy-p-benzoquinone] |  | 0.5 |  | 0.5 |  |  |  |  |  |  |  |  |  | activity against S. aureus ATCC 29213 (in words) [1]: strongly so; MIC ([1]; Staphylococcus aureus, ATCC29213, 24 h, pH 7.2): 7.8 µg/mL (≈ 46.4 µM); MBC ([2]; Staphylococcus aureus, ATCC29213): 15.6 µg/mL (≈ 92.8 µM); zone of inhibition at 200 µg/disc ([3]; ATCC29213, read-out: DDA (diameter of zone of inhibition)): 22.2 mm; zone of inhibition at 200 µg/disc ([4]; read-out: DDA + blood): 17.2 mm; zone of inhibition at 200 µg/disc ([4]; read-out: DDA + lipid): 23.7 mm; zone of inhibition at 200 µg/disc ([4]; read-out: DDA + salt): 22.2 mm; MIC ([5]; Cutibacterium acnes, NCTC737, 72 h, pH 6): 15.6 µg/mL (≈ 92.8 µM); MBC ([6]; Cutibacterium acnes, NCTC737): 31.2 µg/mL (≈ 186 µM); zone of inhibition at 200 µg/disc ([7]; NCTC737, read-out: DDA (diameter of zone of inhibition)): 0 mm; zone of inhibition at 200 µg/disc ([8]; read-out: DDA + lipid): 15.6 mm; zone of inhibition at 200 µg/disc ([8]; read-out: DDA + salt): 16.5 mm |

From US20090030086A1, “ANTIMICROBIAL AGENTS” (priority 2005, published 2009)
